In one test the test system is HeLa. The test is described as follows: Cytotoxicity against human HeLa cells after 3 days by SRB assay. Conditions: 72 h. Format: functional, cell-based.
In another test the target is Tubulin (Sus scrofa, UniProt P02554+P02550). Kind of test: Inhibition of porcine tubulin polymerization by UV-Vis microplate reader analysis. Format: protein assay.
The next test concerns the target Tubulin (Sus scrofa) (UniProt P02554+P02550). Kind of test: Displacement of [3H]-colchicine from porcine tubulin at 20 uM preincubated for 1 hr followed by radioligand addition measured after 30 mins by DE81 filter-based scintillation spectrometric assay. The test is classed as protein assay.

Sequence of Tubulin (Sus scrofa) (P02550 whole entry, looked up): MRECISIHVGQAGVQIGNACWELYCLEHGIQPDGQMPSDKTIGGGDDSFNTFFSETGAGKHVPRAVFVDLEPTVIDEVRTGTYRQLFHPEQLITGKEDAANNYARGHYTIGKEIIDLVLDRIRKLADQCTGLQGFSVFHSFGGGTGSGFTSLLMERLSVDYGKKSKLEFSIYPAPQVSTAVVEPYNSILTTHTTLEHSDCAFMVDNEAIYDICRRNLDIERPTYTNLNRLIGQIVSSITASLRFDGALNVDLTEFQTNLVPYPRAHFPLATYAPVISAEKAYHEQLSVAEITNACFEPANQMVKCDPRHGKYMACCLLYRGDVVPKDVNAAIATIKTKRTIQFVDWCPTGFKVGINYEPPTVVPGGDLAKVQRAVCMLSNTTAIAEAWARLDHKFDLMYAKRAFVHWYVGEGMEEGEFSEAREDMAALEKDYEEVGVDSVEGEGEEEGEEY
Sequence of Tubulin (Sus scrofa) (P02554 whole entry, looked up): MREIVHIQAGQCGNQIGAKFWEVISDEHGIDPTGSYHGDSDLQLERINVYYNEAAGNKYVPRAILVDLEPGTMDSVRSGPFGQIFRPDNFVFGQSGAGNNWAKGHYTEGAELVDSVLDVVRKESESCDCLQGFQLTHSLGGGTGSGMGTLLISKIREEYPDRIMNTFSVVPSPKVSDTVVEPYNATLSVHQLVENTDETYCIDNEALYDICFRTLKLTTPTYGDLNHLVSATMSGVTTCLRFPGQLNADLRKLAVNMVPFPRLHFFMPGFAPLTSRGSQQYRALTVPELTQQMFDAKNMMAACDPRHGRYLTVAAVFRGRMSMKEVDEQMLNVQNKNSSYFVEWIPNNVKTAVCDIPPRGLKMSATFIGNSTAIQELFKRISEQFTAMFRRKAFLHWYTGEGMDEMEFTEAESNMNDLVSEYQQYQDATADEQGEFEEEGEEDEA

In the test with HeLa, `COc1ccc(CNc2c(-c3c(O)cc(OC)cc3OC)nc3ccccn23)cc1` returned an IC50 above 10000 nM.

As to `COc1ccc(CNc2c(-c3ccccc3O)nc3ccccn23)cc1`, the IC50 worked out at 15 nM with HeLa and 4350 nM against Tubulin. Further, the inhibition on Tubulin (Sus scrofa) was determined as 66%.

Compound `COc1cc2c(c(OC)c1OC)-c1ccc(OC)c(=O)cc1[C@@H](NC(C)=O)CC2` [COLCHICINE] registered an IC50 in the test on HeLa of 37 nM. In other words, the double-digit nanomolar range. Regarding `COc1ccc(CNc2c(-c3ccccc3O)nc3cnccn23)cc1`, the IC50 in the test on HeLa was found to be 37 nM; at Tubulin it was 7160 nM. Further, the inhibition at Tubulin (Sus scrofa) was 41.1%. With `COc1ccc(CNc2c(-c3ccccc3O)nc3ccc(Br)cn23)cc1`, the IC50 with HeLa came to 810 nM.

`COc1ccc(CNc2c(-c3cc(Cl)cc(Cl)c3O)nc3ccccn23)cc1` yielded an IC50 in the test on HeLa of 4160 nM. `COc1ccc(CNc2c(-c3ccccc3O)nc3ccc(F)cn23)cc1`: the results for the IC50 in the test on HeLa and at Tubulin were 13 nM and 3410 nM, respectively. On Tubulin (Sus scrofa), this compound showed an inhibition of 72.2%. For `COc1ccc(CNc2c(-c3ccccc3O)nc3cccc(F)n23)cc1`, the IC50 in the test with HeLa came to 46 nM. `COc1ccc(CNc2c(-c3ccccc3NC(C)=O)nc3ccccn23)cc1`: the IC50 in the test with HeLa is above 10000 nM. On the same count and under the same terms, the value for `COc1ccc(Nc2c(-c3ccccc3O)nc3ccccn23)cc1` was above 10000 nM; that for `COc1ccc(CNc2c(-c3ccccc3OC)nc3ccccn23)cc1` was 230 nM; that for `COc1ccc(CNc2c(-c3cc([N+](=O)[O-])ccc3O)nc3ccccn23)cc1` was 210 nM.

Regarding `COc1ccc(CNc2c(-c3ccccc3NS(C)(=O)=O)nc3ccccn23)cc1`, the IC50 in the test with HeLa was above 10000 nM. Same read-out and setting: the value for `COc1ccc(CCNc2c(-c3ccccc3O)nc3ccccn23)cc1` was 8220 nM.
